Experimental data published in the supplement of paper PMC10307832.

Experiments:
Assay in all cases: relative viability (nuclei count vs DMSO), 5 days (fraction); higher = more cells survive
Bortezomib + Olaparib = compound: CC(C)C[C@H](NC(=O)[C@H](Cc1ccccc1)NC(=O)c1cnccn1)B(O)O [Bortezomib] + O=C(c1cc(Cc2n[nH]c(=O)c3ccccc23)ccc1F)N1CCN(C(=O)C2CC2)CC1 [Olaparib] (partner 8 µM)
Summary of the method: (§1)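 Lung cancer cell lines were pin-tool dosed in 1536-well plates on the day after seeding, with either a lone drug or a fixed anchor-drug dose plus five library-drug doses (not always all listed) in √10 steps. Nuclei were counted on 4× images after 5 days. Relative viability is the ratio of treated-well to vehicle-well nuclei counts, with each value a median of duplicate plates.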

Obatoclax + Alpelisib = compound: COC1=CC(c2cc3ccccc3[nH]2)=N/C1=C\c1[nH]c(C)cc1C [Obatoclax] + Cc1nc(NC(=O)N2CCC[C@H]2C(N)=O)sc1-c1ccnc(C(C)(C)C(F)(F)F)c1 [Alpelisib] (partner 2 µM)
Summary of the method: as §1

Obatoclax + Tozasertib = compound: COC1=CC(c2cc3ccccc3[nH]2)=N/C1=C\c1[nH]c(C)cc1C [Obatoclax] + Cc1cc(Nc2cc(N3CCN(C)CC3)nc(Sc3ccc(NC(=O)C4CC4)cc3)n2)n[nH]1 [Tozasertib] (partner 0.1 µM)
Summary of the method: as §1

Obatoclax + Palbociclib = compound: COC1=CC(c2cc3ccccc3[nH]2)=N/C1=C\c1[nH]c(C)cc1C [Obatoclax] + CC(=O)c1c(C)c2cnc(Nc3ccc(N4CCNCC4)cn3)nc2n(C2CCCC2)c1=O [Palbociclib] (partner 0.5 µM)
Summary of the method: as §1

Cell Line	relative viability (Bortezomib + Olaparib; first compound 0.0002 µM)	relative viability (Bortezomib + Olaparib; first compound 0.000632 µM)	relative viability (Bortezomib + Olaparib; first compound 0.002 µM)	relative viability (Bortezomib + Olaparib; first compound 0.006325 µM)	relative viability (Bortezomib + Olaparib; first compound 0.02 µM)	relative viability (Obatoclax + Alpelisib; first compound 0.01 µM)	relative viability (Obatoclax + Alpelisib; first compound 0.03162 µM)	relative viability (Obatoclax + Alpelisib; first compound 0.1 µM)	relative viability (Obatoclax + Alpelisib; first compound 0.3162 µM)	relative viability (Obatoclax + Alpelisib; first compound 1 µM)	relative viability (Obatoclax + Tozasertib; first compound 0.01 µM)	relative viability (Obatoclax + Tozasertib; first compound 0.03162 µM)	relative viability (Obatoclax + Tozasertib; first compound 0.1 µM)	relative viability (Obatoclax + Tozasertib; first compound 0.3162 µM)	relative viability (Obatoclax + Tozasertib; first compound 1 µM)	relative viability (Obatoclax + Palbociclib; first compound 0.01 µM)	relative viability (Obatoclax + Palbociclib; first compound 0.03162 µM)	relative viability (Obatoclax + Palbociclib; first compound 0.1 µM)	relative viability (Obatoclax + Palbociclib; first compound 0.3162 µM)	relative viability (Obatoclax + Palbociclib; first compound 1 µM)
NCI-H2085	0.8	0.802	0.688	0.232	0.211	0.89	0.925	0.98	0.57	0.29	0.751	0.826	0.895	0.776	0.645	0.472	0.45	0.462	0.482	0.423
NCI-H2087	0.634	0.672	0.286	0.0419	0.0226	0.738	1.18	0.953	0.854	0.354	0.248	0.239	0.229	0.206	0.161	0.212	0.216	0.183	0.231	0.116
NCI-H2126	0.851	0.903	0.9	0.794	0.184	0.779	0.752	0.743	0.769	0.714	0.908	0.827	0.87	0.832	0.819	0.34	0.34	0.376	0.356	0.337
NCI-H2170	0.583	0.576	0.584	0.11	0.102	0.777	0.749	0.825	0.724	0.683	0.759	0.758	0.718	0.715	0.753	0.372	0.4	0.393	0.368	0.43
NCI-H2228	0.541	0.615	0.289	0.0866	0.0966	0.662	0.601	0.629	0.436	0.27	0.278	0.318	0.29	0.257	0.21	0.609	0.792	0.573	0.525	0.401
NCI-H2347	0.413	0.572	0.338	0.245	0.249	1.02	0.994	0.841	1.01	0.93	0.504	0.684		0.549	0.423	0.388	0.406	0.393	0.489	0.413
NCI-H2405	0.859	0.834	0.334	0.199	0.161	0.806	0.891		0.777	0.711	0.789	0.905		0.833	0.882	0.578	0.545		0.541	0.434
NCI-H3122	0.557	0.621	0.604	0.243	0.0898	0.787	0.812	0.792	0.707	0.751	0.389	0.361	0.382	0.373	0.391	0.185	0.185	0.277	0.224	0.179
